The values that follow come from US8012975B2, “Antitumoral analogs of ET-743” (Pharma Mar, S.A., priority 2000, dated 2011).

Like-named read-outs stand apart in the source and are kept apart here.

The subject of data set [1] is MX-1. The data set is described as follows: Cytotoxic activity (M) panel, Breast MX-1. The conditions noted are these: Homo sapiens, MX1, read-out: CYTOTOXIC ACTIVITY (M) MX-1.
Data set [2] concerns 786-O. The data set is described as follows: Cytotoxic activity (M) panel, Renal 786-O. The note with it: Homo sapiens, 786-0, read-out: CYTOTOXIC ACTIVITY (M) 786-O.
The subject of data set [3] is PANC-1. The data set is described as follows: Cytotoxic activity (M) panel, Pancreas PANC-1. The note with it: Homo sapiens, PANC-1, read-out: CYTOTOXIC ACTIVITY (M) PANC-1.
For data set [4], the system named is SK-HEP-1. The data set is described as follows: Cytotoxic activity (M) panel, Liver SK-HEP-1. The note with it: Homo sapiens, SK-HEP1, read-out: CYTOTOXIC ACTIVITY (M) SK-HEP-1.
In data set [5] the test system is CHSA. The data set is described as follows: Cytotoxic activity (M) panel, Chondrosarcoma CHSA. The conditions noted are these: read-out: CYTOTOXIC ACTIVITY (M) CHSA.
Data set [6] concerns 5637. The data set is described as follows: Cytotoxic activity (M) panel, Bladder 5637. The conditions noted are these: read-out: CYTOTOXIC ACTIVITY (M) 5637.
The test system of data set [7] is SK-OV-3. The data set is described as follows: Cytotoxic activity (M) panel, Ovary SK-OV-3. The conditions noted are these: Homo sapiens, SK-OV-3, read-out: CYTOTOXIC ACTIVITY (M) SK-OV-3.
Data set [8] has as its system MEL-28. The data set is described as follows: Cytotoxic activity (M) panel, Melanoma Mel-28. The note with it: Homo sapiens, SK-MEL-28, read-out: CYTOTOXIC ACTIVITY (M) Mel-28.
The test system of data set [9] is LNCAP. The data set is described as follows: Cytotoxic activity (M) panel, Prostate LNCAP. The conditions noted are these: Homo sapiens, read-out: CYTOTOXIC ACTIVITY (M) LNCAP.
For data set [10], the system named is Y-79. The data set is described as follows: Cytotoxic activity (M) panel, Retinoblastoma Y-79. The note with it: Homo sapiens, Y79, read-out: CYTOTOXIC ACTIVITY (M) Y-79.
Data set [11] relates to Hs746t. The data set is described as follows: Cytotoxic activity (M) panel, Gastric Hs746t. The conditions noted are these: Homo sapiens, read-out: CYTOTOXIC ACTIVITY (M) Hs746t.
Data set [12] concerns FADU. The data set is described as follows: Cytotoxic activity (M) panel, Pharnynx FADU. The note with it: Homo sapiens, read-out: CYTOTOXIC ACTIVITY (M) FADU.
Data set [13] has as its system PC3.
The test system of data set [14] is OSA-FH. The data set is described as follows: Cytotoxic activity (M) panel, Osteosarcoma OSA-FH. The conditions noted are these: read-out: CYTOTOXIC ACTIVITY (M) OSA-FH.
The subject of data set [15] is NCI-H187. The data set is described as follows: Cytotoxic activity (M) panel, SCL NCI-H187. The note with it: Homo sapiens, NCI-H187, read-out: CYTOTOXIC ACTIVITY (M) NCI-H187.
Data set [16] has as its system DU-145. The data set is described as follows: Cytotoxic activity (M) panel, Prostate DU-145. The note with it: Homo sapiens, DU-145, read-out: CYTOTOXIC ACTIVITY (M) DU-145.
Data set [17] deals with SK-HEP-1.
For data set [18], the system named is HT-29. The data set is described as follows: Cytotoxic activity (M) panel, Colon HT-29. The note with it: Homo sapiens, HT-29, read-out: CYTOTOXIC ACTIVITY (M) HT-29.
Data set [19] has as its system A549. The data set is described as follows: Cytotoxic activity (M) panel, NSCL A549. The note with it: Homo sapiens, A549, read-out: CYTOTOXIC ACTIVITY (M) A549.
For data set [20], the system named is SW-694. The data set is described as follows: Cytotoxic activity (M) panel, Fibrosarcoma SW-694. The conditions noted are these: read-out: CYTOTOXIC ACTIVITY (M) SW-694.
Data set [21] has as its system PC3. The data set is described as follows: Cytotoxic activity (M) panel, Prostate PC3. The conditions noted are these: Homo sapiens, PC-3, read-out: CYTOTOXIC ACTIVITY (M) PC3.
Data set [22] deals with MX-1.
Data set [23] deals with NCI-H187.
Data set [24] has as its system Y-79.
In data set [25] the test system is A549.

Take `CCCC(=O)NC[C@H]1c2c(c(OC(C)=O)c(C)c3c2OCO3)CC2[C@H]3c4c(cc(C)c(OC)c4O)C[C@@H]([C@H](O)N21)N3C` (stereo partly shown) [drawing 225]: the IC50 came to 2.5e-06 M in [1]; 6.55e-09 M in data set [2]; 2.9e-09 M in data set [3]; 5.07e-09 M in [4]; 1.73e-08 M in data set [5]; 2.81e-09 M in data set [6]. Moreover, the IC50 in [7] is 2.21e-07 M; in [8], 3.05e-08 M; in data set [9], 5.39e-09 M; in data set [10], 3.14e-09 M; in [11], 2.97e-08 M; in [12], 7.94e-09 M. The IC50 in data set [14] amounted to 8.56e-08 M; in data set [15] it was 3.98e-11 M. Moreover, in data set [13], the “CYTOTOXIC ACTIVITY (M) PC3” value is 1.46-08 M.

As to `COc1c(C)cc2c(c1O)[C@@H]1C3Cc4c(OC(C)=O)c(C)c5c(c4[C@H](COC(=O)/C=C/c4cccc(C(F)(F)F)c4)N3[C@@H](O)[C@H](C2)N1C)OCO5` (stereo partly shown) [drawing 233], the IC50 in data set [16] worked out at 7.03e-08 M; in data set [1] it was 2.81e-08 M; in [18], 4.08e-07 M; in [2], 1.46e-08 M; in data set [3] it was 1.03e-08 M; in [5], 2.53e-08 M. Besides, the IC50 in data set [6] came to 1.14e-08 M; in data set [7] it was 7.03e-06 M; in [19] it was 2.81e-06 M; in data set [8], 1.76e-08 M; in data set [9] it was 5.98e-07 M; in data set [10], 8.85e-10 M. Moreover, the IC50 in data set [11] came to 3.57e-08 M; in data set [20] it was 3.38e-06 M; in [21], 7.88e-08 M; in data set [12], 4.59e-07 M; in data set [14] it was 6.34e-08 M; in [15], 8.02e-10 M. Besides, in data set [17], the “CYTOTOXIC ACTIVITY (M) SK-HEP-1” value is 1.63 to 08 M.

Take `COc1c(C)cc2c(c1O)[C@@H]1C3Cc4c(OC(C)=O)c(C)c5c(c4[C@H](COC(=O)/C=C/c4ccccc4)N3[C@@H](O)[C@H](C2)N1C)OCO5` (stereo partly shown) [drawing 234]: the IC50 in data set [16] turned out to be 1.56e-06 M; in data set [22], 0.000725 nM; in data set [18] it was 2.96e-07 M; in data set [2], 5.26e-12 M; in data set [23] it was 0.0778 pM; in data set [3] it was 9.47e-09 M. Also, the IC50 in [4] was determined as 1.94e-09 M; in data set [5], 4.49e-08 M; in [6], 1.71e-08 M; in [7], 7.78e-08 M; in data set [24], 0.0778 pM; in data set [8] it was 5.89e-08 M. Further, the IC50 in [9] came to 6.83e-08 M; in data set [11], 1.24e-09 M; in data set [20], 6.69e-06 M; in [12], 2.46e-08 M; in data set [14], 5.26e-07 M. In [25], the “CYTOTOXIC ACTIVITY (M) A549” value lay within 1.56 to 05 M.
